{
  "source": "patent US20100234433A1",
  "about": "“GLYCOGEN PHOSPHORYLASE INHIBITOR COMPOUND AND PHARMACEUTICAL COMPOSITION THEREOF” (priority 2007, published 2010)",
  "key": {"[1]": {"target": "T1, human liver glycogen phosphorylase a (HLGPa) (Homo sapiens, UniProt P06737)", "T1 construct": "creating a full-length cDNA fused at the 5′ end to codons for methionine-glycine-alanine-histidine; 6x histidine tag (leader Met-Gly-Ala-His6-Gly-Gly) (N); Tev protease cleavage site (Glu-Asn-Leu-Tyr-Phe-Gln-Gly-Gly) (N); made in house; host or cells: E. coli (bacterial expression plasmid pTXK1007LTev)", "T1 sequence (P06737 1-847)": "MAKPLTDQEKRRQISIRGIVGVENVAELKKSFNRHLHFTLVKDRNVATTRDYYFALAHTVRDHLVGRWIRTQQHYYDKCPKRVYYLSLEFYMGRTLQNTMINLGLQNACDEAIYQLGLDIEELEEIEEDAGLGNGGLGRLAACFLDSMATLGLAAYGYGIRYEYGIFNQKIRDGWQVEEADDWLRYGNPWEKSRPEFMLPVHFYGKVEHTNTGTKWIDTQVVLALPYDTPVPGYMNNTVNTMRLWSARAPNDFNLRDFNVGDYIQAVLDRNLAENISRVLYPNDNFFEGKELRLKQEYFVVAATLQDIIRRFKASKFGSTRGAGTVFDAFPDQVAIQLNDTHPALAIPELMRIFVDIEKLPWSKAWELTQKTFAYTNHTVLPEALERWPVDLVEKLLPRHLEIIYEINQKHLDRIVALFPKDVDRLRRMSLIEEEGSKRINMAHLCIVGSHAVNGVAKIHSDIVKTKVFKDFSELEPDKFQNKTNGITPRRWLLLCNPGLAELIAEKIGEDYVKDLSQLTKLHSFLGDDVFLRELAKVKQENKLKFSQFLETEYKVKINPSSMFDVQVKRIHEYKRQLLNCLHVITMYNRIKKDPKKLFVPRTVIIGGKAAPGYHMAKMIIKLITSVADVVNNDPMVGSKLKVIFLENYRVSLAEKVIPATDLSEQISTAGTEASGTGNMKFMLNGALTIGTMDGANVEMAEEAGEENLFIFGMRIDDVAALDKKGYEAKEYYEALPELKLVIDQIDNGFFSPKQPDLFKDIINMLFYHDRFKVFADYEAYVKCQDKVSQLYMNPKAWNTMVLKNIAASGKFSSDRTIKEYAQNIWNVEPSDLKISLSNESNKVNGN", "experiment": "Human liver glycogen phosphorylase a enzymatic activity assay", "format": "biochemical", "settings": "15 nM HLGPa, coupled resorufin fluorescence readout; assay run with and without 10 mM glucose, condition of the value not stated", "method": "The purified glycogen phosphorylase (GP) enzyme, wherein glycogen phosphorylase is in the activated “a” state, referred to as human liver glycogen phosphorylase a (HLGPa), can be obtained according to the following procedures.\nFrozen purified glycogen phosphorylase (HLGPb) was thawed in at 4° C. then dialyzed overnight into 50 mM HEPES, 100 mM NaCl, pH 7.4. 15 mg of the dialyzed HLGPb, 3 mM ATP and 5 mM MgCl2 was incubated with 500 μl of the prepared Affi-Gel immobilized phosphorylase kinase beads equilibrated with 50 mM HEPES, 100 mM NaCl, pH 7.4. The degree of phosphorylation was monitored by following the increase in activity at 10 minute intervals using the assay system outlined below. […] MgCl2, 3.5 mM KH2PO4, 0.5 mM DTT, 0.4 mg/mL glycogen, 7.5 mM Glucose, 0.50 mM β-nicotinamide adenine dinucleotide (β-NAD), 3 U/mL phosphoglucomutase, and 5 U/mL glucose-6-phosphate dehydrogenase, Activity was monitored by following the reduction of NAD^+ at 340 nm. […]\nAn enzymatic assay was developed to measure the response of the activated form of glycogen phosphorylase (HLGPa) to small molecule (<1000 Da.) compounds. […] The change in fluorescence due to product formation was measured on a fluorescence plate reader (Molecular Devices SpectraMax M2) with excitation at 560 nm and emission at 590 nm."}, "male CD rats": {"test_system": "male CD rats", "experiment": "In vivo glucagon challenge model", "set-up": "species or system rat", "settings": "glucagon 10 ug/kg + Sandostatin i.v. 2 hr after dosing, serum glucose 0-20 min", "method": "Jugular vein cannulated male CD rats (220-260 g) (Charles Rivers, Raleigh, N.C.) were received 1-2 days after cannulation, housed individually on Alpha-Dri™ bedding (Shepherd Specialty Papers, Inc., Kalamazoo, Mich.) with free access to food (Lab Diet 5001, PMI Nutrition International, Brentwood, Mo.) and water and maintained on a 12 h light/dark cycle at 21° C. and 50% relative humidity for 3-4 days prior to the glucagon challenge studies. On the day of the study, the rats were sorted by body weight into treatment groups (N=4-5) and housed individually in shoe box cages with clean Alpha-dri bedding. The cannula lines were opened by removal of 0.2 ml blood and flushed with 0.2 ml sterile saline. After a one hour acclimation, blood samples were collected to determine basal glucose and the rats were orally dosed with vehicle (5% DMSO: 30% Solutol HS15: 20% PEG400: 45% 25 mM N-methylglucamine) or drug (5 ml/kg). Two hr after drug dosing, a time zero blood sample (0.4 ml) was collected for determination of glucose and the rats were dosed through the jugular vein with Sandostatin, 0.5 mg/kg, (Novartis Pharmaceuticals Corp., East Hanover, N.J.) and glucagon, 10 ug/kg (Bedford Laboratories, Bedford, Ohio). Blood samples were collected after 10 and 20 min for glucose determination. Whole blood was placed in a Terumo Capiject blood collection tube (Terumo Medical. Corp., Elkton, Md.), allowed to sit at room temperature for 20-30 minutes and then centrifuged (3,000×G) to obtain serum. Serum levels of glucose were determined using an Olympus AU640™ clinical chemistry immuno-analyzer (Olympus America Inc., Melville, N.Y.). The % reduction (% R) of the vehicle glucose AUG was calculated for each drug treatment using the formula % reduction=100*1−(AUG drug/AUC vehicle), where AUG was calculated from serum glucose values using the equation AUG=(T0+T10)/2*10+(T10+T20)/2*10−(T0*20)."}},
  "data": [
    {"smiles": "COCc1cc(C)c(NC(=O)Nc2cc(-c3ccc(OC)nc3)ccc2C(=O)N[C@H](C(=O)O)[C@@H](C)OC(C)(C)C)c(C)c1", "note": "[Example 1, O-(1,1-Dimethylethyl)-N-({2-{[({2,6-dimethyl-4-[(methyloxy)methyl]phenyl}amino)carbonyl]amino}-4-[6-(methyloxy)-3-pyridinyl]phenyl}carbonyl)-L-threonine]", "values": [
      {"measurement": "IC50", "setting": "[1]", "value": 5, "unit": "nM"},
      {"measurement": "% R (% reduction of the vehicle glucose AUC)", "setting": "male CD rats; 0.5 mg/kg oral", "value": 32, "unit": "%"},
      {"measurement": "% R (% reduction of the vehicle glucose AUC)", "setting": "male CD rats; 2 mg/kg oral", "value": 53, "unit": "%"},
      {"measurement": "% R (% reduction of the vehicle glucose AUC)", "setting": "male CD rats; 5 mg/kg oral", "value": 63, "unit": "%"},
      {"measurement": "% R (% reduction of the vehicle glucose AUC)", "setting": "male CD rats; 15 mg/kg oral", "value": 70, "unit": "%"}
    ]}
  ]
}
